In ChEMBL document CHEMBL1201862, “PubChem BioAssay data set” (2004):
Calls of active or inactive are those of the source.

Assays:
cells [1] = type: functional, cell-based
[2] = Counterscreen for AddAB inhibitors: absorbance-based bacterial cell-based high throughput dose response assay for inhibitors of bacterial viability. [Related pubchem assays (depositor defined):AID435030, AID449728, AID449731, AID488942, AID488955, AID488956]; type: functional
[3] = cytotoxicity in MIN6 insulinoma cells, dose response, cytotoxicity control, cell-based, mouse insulinoma (AID 2122); type: functional;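 also: confirmatory high-throughput counterscreen run to flag cytotoxic compounds; mouse MIN-6 beta cells carrying an insulin promoter eGFP reporter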
cells [4] = type: functional, cell-based; remark: listed apart in the source
[5] = insulin promoter down-regulators in MIN6 cells, imaging, high-content screening, mouse beta cells (AID 1628); type: functional
[6] = C. albicans growth with fluconazole, confirmation, fluorescence, retest (AID 2467); type: functional, cell-based
Nonstructural protein 1 = Nonstructural protein 1 (Influenza A virus, UniProt Q194T2); type: functional, Influenza A virus (A/California/07/2009(H1N1))
[7] = biological target: Small ubiquitin-related modifier 2 (Homo sapiens, UniProt P61956); test: SUMO2–SIM peptide binding inhibitors, dose response, selectivity assay for SUMO1 interaction inhibitor project, biochemical, fluorescence polarization, uHTS hits (AID 624385); type: functional; settings: read-out: IC50_Mean
[8] = biological target: Small ubiquitin-related modifier 1 (Homo sapiens, UniProt P63165); test: inhibitors of SUMO1 partner interactions, dose response, biochemical, FRET (AID 624383); type: functional; settings: read-out: IC50_Mean
Chain of Small ubiquitin-related modifier 1 (P63165 whole entry): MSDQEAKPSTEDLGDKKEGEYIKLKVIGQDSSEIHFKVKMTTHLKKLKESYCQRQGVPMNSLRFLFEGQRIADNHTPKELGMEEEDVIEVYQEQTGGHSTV

[9] = biological target: Voltage-gated N-type calcium channel alpha-1B subunit/Amyloid beta A4 precursor protein-binding family A member 1 (Homo sapiens, UniProt Q00975+Q02410); type: protein assay
Chain of Voltage-gated N-type calcium channel alpha-1B subunit/Amyloid beta A4 precursor protein-binding family A member 1 (Q00975 whole entry): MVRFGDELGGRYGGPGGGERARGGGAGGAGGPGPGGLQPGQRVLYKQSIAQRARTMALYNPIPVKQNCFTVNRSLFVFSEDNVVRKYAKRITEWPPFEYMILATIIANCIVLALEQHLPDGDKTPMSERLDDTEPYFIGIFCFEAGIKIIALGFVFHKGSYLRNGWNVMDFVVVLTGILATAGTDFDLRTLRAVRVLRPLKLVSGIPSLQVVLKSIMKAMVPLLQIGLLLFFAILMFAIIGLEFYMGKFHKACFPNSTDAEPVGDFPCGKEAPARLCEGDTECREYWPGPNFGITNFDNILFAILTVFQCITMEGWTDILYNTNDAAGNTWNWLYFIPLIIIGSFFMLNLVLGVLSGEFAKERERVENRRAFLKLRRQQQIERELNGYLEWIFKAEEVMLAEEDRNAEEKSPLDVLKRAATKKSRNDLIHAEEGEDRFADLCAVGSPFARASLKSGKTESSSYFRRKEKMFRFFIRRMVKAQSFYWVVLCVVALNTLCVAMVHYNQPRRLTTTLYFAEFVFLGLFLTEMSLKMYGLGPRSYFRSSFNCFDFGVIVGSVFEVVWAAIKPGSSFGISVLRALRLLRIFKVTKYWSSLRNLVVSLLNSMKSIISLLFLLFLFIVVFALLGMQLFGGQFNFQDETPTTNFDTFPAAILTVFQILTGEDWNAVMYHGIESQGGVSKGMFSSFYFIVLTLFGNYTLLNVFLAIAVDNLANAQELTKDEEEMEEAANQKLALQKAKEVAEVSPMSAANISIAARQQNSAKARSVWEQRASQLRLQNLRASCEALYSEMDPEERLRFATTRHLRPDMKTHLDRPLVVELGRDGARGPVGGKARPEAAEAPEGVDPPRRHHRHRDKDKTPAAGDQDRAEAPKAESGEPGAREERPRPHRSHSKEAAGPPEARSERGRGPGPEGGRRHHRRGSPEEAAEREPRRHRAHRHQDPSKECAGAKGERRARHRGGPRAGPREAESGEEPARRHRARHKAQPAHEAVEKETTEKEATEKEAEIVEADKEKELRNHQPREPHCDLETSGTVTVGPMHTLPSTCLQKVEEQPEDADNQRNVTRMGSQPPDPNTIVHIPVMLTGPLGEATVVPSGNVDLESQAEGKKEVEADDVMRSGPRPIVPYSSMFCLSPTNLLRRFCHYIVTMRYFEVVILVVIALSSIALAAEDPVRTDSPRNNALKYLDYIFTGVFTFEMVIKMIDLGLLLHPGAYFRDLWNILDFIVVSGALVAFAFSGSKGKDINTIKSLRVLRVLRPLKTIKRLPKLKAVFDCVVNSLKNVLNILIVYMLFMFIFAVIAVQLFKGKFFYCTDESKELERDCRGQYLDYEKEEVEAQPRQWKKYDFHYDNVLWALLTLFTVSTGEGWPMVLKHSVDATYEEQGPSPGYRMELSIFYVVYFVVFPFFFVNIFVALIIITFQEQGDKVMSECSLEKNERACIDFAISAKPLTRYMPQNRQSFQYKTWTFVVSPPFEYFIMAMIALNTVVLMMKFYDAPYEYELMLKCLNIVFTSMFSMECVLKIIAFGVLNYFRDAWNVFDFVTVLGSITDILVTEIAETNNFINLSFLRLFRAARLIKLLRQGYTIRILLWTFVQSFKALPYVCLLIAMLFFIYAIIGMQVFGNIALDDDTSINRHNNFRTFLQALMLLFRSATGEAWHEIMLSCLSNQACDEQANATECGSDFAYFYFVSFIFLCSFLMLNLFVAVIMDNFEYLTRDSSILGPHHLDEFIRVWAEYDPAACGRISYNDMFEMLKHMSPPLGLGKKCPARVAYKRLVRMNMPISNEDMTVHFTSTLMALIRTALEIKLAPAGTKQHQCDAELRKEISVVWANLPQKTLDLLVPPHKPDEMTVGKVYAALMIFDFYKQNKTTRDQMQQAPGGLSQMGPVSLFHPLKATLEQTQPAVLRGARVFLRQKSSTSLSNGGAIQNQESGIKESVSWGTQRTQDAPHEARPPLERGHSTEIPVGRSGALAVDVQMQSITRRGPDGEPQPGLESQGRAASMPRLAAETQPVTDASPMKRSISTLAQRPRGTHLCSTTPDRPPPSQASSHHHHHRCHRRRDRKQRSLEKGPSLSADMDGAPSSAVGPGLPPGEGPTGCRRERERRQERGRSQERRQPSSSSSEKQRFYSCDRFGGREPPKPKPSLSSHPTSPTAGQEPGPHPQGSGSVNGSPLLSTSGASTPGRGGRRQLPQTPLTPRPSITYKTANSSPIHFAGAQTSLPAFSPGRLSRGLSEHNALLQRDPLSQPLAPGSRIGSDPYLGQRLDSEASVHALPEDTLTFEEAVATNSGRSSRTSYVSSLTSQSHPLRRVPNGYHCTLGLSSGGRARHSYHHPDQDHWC
Chain of Voltage-gated N-type calcium channel alpha-1B subunit/Amyloid beta A4 precursor protein-binding family A member 1 (Q02410 whole entry): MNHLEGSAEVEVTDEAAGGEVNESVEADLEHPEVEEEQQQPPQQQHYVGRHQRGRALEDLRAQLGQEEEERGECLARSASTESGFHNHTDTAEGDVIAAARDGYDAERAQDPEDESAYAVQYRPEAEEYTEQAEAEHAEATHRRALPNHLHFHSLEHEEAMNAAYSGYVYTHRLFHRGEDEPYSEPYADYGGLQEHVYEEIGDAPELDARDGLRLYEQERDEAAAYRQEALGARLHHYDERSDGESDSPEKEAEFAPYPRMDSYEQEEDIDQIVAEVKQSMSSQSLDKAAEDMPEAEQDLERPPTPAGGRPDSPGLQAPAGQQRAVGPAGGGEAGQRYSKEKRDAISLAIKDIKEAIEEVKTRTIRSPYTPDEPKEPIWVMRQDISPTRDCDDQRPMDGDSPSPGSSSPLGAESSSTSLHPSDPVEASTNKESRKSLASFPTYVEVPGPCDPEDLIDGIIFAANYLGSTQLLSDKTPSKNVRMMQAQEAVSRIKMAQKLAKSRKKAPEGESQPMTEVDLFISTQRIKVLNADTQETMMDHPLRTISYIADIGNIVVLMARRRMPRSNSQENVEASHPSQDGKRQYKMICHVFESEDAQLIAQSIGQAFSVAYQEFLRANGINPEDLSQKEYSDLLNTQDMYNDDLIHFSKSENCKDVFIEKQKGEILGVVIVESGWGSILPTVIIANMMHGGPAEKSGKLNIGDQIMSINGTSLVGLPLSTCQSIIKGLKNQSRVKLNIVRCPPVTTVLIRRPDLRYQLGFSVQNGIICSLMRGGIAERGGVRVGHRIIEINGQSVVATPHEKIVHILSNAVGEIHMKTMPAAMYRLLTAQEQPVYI

[10] = THP-1 cell cytotoxicity, dose response, cytotoxicity control for Vif-APOBEC3G degradation inhibitor project, THP-1 cells (AID 1117359); type: functional; settings: Human immunodeficiency virus 1, THP-1
[11] = biological target: T1, Rac GTPase-activating protein 1 (Homo sapiens, UniProt Q9H0H5); test: MgcRacGAP GTPase-activating activity inhibitors, confirmation, biochemical, ADP Hunter fluorescence, primary and confirmatory (AID 624330); type: functional
T1 sequence (Q9H0H5 whole entry): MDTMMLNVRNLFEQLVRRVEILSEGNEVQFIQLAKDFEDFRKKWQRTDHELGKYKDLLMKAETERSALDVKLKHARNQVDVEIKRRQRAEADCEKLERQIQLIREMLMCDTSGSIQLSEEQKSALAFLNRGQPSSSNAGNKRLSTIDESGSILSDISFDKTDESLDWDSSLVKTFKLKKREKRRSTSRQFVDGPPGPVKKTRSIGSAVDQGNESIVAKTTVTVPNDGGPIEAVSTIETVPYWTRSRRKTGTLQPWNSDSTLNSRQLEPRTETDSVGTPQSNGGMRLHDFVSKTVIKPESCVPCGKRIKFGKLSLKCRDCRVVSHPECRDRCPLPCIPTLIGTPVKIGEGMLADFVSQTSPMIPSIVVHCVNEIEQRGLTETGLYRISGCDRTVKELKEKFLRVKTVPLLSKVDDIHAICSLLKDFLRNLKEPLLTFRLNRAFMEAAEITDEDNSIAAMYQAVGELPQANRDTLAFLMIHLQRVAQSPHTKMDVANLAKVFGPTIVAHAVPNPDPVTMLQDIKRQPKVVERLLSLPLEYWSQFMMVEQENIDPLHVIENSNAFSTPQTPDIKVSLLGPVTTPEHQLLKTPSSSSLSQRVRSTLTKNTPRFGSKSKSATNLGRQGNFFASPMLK

[12] = biological target: G-protein coupled receptor 55 (Homo sapiens, UniProt Q9Y2T6); test: GPR55 antagonists blocking LPI-driven arrestin recruitment, primary screen, imaging, U2OS, beta-arrestin-GFP, LPI agonist (AID 2013); type: functional;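 also: antagonist potency measured as reduced agonist-driven arrestin aggregation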
Chain of G-protein coupled receptor 55 (Q9Y2T6 whole entry): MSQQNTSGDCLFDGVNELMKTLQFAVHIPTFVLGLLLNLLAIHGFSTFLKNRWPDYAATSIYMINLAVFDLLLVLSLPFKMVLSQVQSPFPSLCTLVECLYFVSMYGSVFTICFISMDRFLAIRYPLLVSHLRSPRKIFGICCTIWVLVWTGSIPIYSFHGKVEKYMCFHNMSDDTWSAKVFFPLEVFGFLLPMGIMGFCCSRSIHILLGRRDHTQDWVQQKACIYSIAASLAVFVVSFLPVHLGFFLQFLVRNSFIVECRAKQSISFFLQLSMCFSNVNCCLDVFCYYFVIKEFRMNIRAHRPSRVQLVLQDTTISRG

[13] = biological target: Peroxisome proliferator-activated receptor gamma/Nuclear receptor coactivator 3 (Homo sapiens, UniProt P37231); test: TR-FRET dose response biochemical High Throughput Screening assay for agonists of the steroid receptor coactivator 3 (SRC-3) recruitment by the peroxisome proliferator-activated receptor gamma (PPAR gamma): non-selective agonists. [Related pubchem assays: 1301 (Confirmation screen.), 1048 (Primary screen.)]; type: functional
[14] = tested on: Streptococcus sp. 'group A'; test: growth inhibition of control SK(-) GAS strain, dose response, counter-screen for streptokinase expression inhibitor project, luminescence, kanamycin, BacTiterGlo, confirmation (AID 1900); type: functional, organism-based
[15] = biological target: Protein-tyrosine kinase 2-beta (Homo sapiens, UniProt Q14289);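 also: potency of inhibitors of PYK2 kinase phosphorylation of poly-GT substrate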
Chain of Protein-tyrosine kinase 2-beta (Q14289 whole entry): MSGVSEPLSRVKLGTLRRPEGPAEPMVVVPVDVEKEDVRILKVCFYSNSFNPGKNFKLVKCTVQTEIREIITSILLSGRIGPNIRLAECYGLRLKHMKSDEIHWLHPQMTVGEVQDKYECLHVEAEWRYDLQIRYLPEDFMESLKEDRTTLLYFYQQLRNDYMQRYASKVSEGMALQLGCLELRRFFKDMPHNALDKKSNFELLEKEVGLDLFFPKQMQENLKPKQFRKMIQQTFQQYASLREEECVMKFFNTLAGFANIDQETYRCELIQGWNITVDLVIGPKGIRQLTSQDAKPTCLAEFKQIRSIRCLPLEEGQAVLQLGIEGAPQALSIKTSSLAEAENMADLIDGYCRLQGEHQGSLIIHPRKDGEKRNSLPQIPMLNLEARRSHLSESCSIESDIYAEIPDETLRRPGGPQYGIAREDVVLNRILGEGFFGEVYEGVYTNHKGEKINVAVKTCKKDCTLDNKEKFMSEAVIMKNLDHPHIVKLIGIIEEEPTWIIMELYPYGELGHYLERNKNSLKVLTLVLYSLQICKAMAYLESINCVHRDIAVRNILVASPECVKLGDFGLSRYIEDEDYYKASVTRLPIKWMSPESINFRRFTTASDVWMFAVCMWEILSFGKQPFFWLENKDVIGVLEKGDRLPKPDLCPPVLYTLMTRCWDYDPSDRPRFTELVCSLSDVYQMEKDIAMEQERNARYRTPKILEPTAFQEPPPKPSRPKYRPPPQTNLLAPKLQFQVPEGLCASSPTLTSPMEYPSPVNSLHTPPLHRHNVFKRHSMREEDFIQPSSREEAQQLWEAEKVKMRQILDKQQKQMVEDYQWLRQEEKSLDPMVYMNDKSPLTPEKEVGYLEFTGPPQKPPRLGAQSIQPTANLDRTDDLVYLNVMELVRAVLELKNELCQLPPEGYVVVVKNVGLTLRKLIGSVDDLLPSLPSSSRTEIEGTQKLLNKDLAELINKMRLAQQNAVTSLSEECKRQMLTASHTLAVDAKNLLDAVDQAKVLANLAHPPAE

BJ = test: cytotoxicity toward Ras-transformed BJeLR fibroblasts, dose response, cell-based, alamar blue fluorescence, cherrypicked samples (AID 2631); type: functional; settings: Homo sapiens;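 also: confirmatory dose-response assay in RAS-dependent BJ fibroblasts engineered with TERT, LT and ST, with cytotoxicity read by fluorescence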
[16] = biological target: T2, Mannose-6-phosphate isomerase (Homo sapiens, UniProt P34949); test: inhibitors of human PMI, primary screen, biochemical, fluorescence intensity, coupled assay (AID 1209)
T2 sequence (P34949 whole entry): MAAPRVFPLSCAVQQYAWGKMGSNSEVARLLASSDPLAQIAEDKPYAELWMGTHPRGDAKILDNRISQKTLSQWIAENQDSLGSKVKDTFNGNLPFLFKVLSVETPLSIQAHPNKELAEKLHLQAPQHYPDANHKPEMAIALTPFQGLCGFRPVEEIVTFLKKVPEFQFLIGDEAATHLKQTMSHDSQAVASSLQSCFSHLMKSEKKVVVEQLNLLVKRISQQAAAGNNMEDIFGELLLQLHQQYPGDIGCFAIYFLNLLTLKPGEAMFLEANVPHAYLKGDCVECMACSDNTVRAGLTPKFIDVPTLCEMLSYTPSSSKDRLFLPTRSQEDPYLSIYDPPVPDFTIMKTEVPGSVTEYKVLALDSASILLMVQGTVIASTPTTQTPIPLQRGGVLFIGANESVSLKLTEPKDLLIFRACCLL

[17] = biological target: Peroxisome proliferator-activated receptor gamma/Nuclear receptor coactivator 2 (Homo sapiens, UniProt P37231); test: TR-FRET dose response biochemical High Throughput Screening assay for agonists of the steroid receptor coactivator 2 (SRC-2) recruitment by the peroxisome proliferator-activated receptor gamma (PPAR gamma): non-selective agonists. [Related pubchem assays: 1297, 1032 ]; type: functional
[18] = Fluorescence-based biochemical high throughput screening dose response assay to identify inhibitors of Crimean-Congo Hemorrhagic Fever (CCHF) viral ovarian tumor domain protease (vOTU): Pep-AMC substrate.
[19] = biological target: Heat shock protein HSP 90-alpha (Homo sapiens, UniProt P07900); test: Luminescence-based dose response biochemical high throughput screening assay for inhibitors of the Heat Shock Protein 90 (HSP90). [Related pubchem assays: 1831 (Summary AID.), 1846 (Confirmation screen.), 1789 (Primary screen.)]
[20] = growth suppression of PTEN-null colon cells, dose response, cell-based, HCT116 PTEN knockout (AID 1047); type: functional;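 also: HCT116 colon tumor cells with PTEN knocked out; cells exposed to compound for 60 hours before readout; potency for loss of cell viability measured by luminescence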
[21] = growth suppression of beta-catenin-knockout colon cells, dose response, cell-based, HCT116, human colon tumor (AID 1045); type: functional;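 also: HCT116 colon tumor cells with beta catenin knocked out; cells exposed to compound for 60 hours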
Caspase-9 = Caspase-9 (Homo sapiens, UniProt P55211); test: caspase-9 enzyme inhibition, dose response, selectivity assay for caspase-6 inhibitor project, biochemical, fluorescence, plate reader, cherry-picked samples (AID 743293)
Chain of Caspase-9 (P55211 1-315 limits assumed): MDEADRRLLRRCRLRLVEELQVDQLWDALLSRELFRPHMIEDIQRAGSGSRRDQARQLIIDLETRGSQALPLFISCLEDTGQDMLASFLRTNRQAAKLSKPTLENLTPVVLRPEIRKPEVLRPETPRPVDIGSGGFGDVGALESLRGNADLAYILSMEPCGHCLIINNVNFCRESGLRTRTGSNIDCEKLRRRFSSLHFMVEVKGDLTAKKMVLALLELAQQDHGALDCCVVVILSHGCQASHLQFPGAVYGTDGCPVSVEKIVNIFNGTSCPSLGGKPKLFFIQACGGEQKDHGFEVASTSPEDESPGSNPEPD
Chain of Caspase-9 (P55211 331-416 limits assumed): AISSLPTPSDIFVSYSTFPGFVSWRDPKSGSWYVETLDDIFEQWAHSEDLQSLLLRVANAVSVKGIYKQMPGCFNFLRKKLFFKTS

CCCC(=O)NC(c1ccccc1OC)c1ccc2cccnc2c1O (centres undefined)
EC50 (cells [1]): 7.86 µM (active) | IC50 [2]: > 119 µM (inactive) | IC50 [3]: 1.91 µM (active) | EC50 (cells [4]): > 350 µM (not active) | IC50 [5]: 1.71 µM (active) | EC50 [6]: 0.476 µM (active)

COC(CNC(=O)c1ccc2c3c(onc13)-c1ccccc1C2=O)OC
IC50 (Nonstructural protein 1): 82.4 µM (active)

COc1cc(-c2ccc(Nc3ccccc3C(=O)O)c(OC)c2)ccc1Nc1ccccc1C(=O)O
IC50 [7]: 2.34 µM (active) | IC50 [8]: 3.9 µM (active) | IC50 [9]: 30 µM (active) | CC50 [10]: > 40 µM (active) | IC50 [11]: 41.4 µM (active)

Nc1ccc2c(c1)C(=O)C(=O)c1ccccc1-2
IC50 [12]: 1.36 µM (active) | EC50 [13]: > 79.4 µM (not active) | EC50 [14]: 0.46 µM (active) | IC50 [15]: > 69.5 µM (not active) | EC50 (BJ): 2.8 µM (active) | IC50 [16]: > 50 µM (not active) | EC50 [17]: 12.1 µM (not active)

O=C(O)c1ccc(NC2=C/C(=N/S(=O)(=O)c3ccccc3)c3ccccc3C2=O)cc1
IC50 [18]: > 0.157 µM (active) | IC50 [19]: 0.967 µM (active)

COC(=O)[C@@H]1[C@@H](C(=O)OC)C2(c3ccccc3-c3ccccc32)N(c2ccc(Cl)cc2)N1C#N
EC50 [20]: 7.77 µM (active) | EC50 [21]: 8.83 µM (active)

COc1ccc(OC)c(Nc2cc3ccccc3c(O)n2)c1
AC50 (Caspase-9): 10.1 µM (active)
